From patent US20230219963A1, “PYRROLO[2,3-D]PYRIMIDINE DERIVATIVES” (Pfizer Inc., priority 2020, published 2023)

What was measured:
Format in all cases: cell-based
IL-31 induced pSTAT3 = assay: IL-31-induced pSTAT3 in IFNγ-primed THP-1 cells; details: Homo sapiens, JAK1/JAK2, read-out: IL-31 induced pSTAT3, cellular potency IC50
Method: THP-1 cells were maintained in RPMI 1640 medium containing 10% FBS, 50 μM 2 mercaptoethanol, 50 U/mL penicillin, 50 µg/mL streptomycin and 2 mM L-glutamine. THP 1 cells were treated with IFNγ (20 ng/mL) for 18 hours. IFNγ primed THP-1 cells were resuspended in fresh RPMI 1640 medium, treated with compounds (0.0003 to 20 μM) for 60 minutes, followed by stimulation with IL-31 (1 μg/mL) for additional 10 minutes. Cells were then fixed by 2% paraformaldehyde and permeabilized by 90% methanol. Fixed and permeabilized cells were stained with AlexaFluor647™ labeled anti-pSTAT3 antibody (1 to 150 dilution).
After overnight incubation at 4° C., anti-pSTAT stained samples were transferred into 96-well polypropylene U-bottom plates and flow cytometric analysis was performed on a LSR Fortessa™ equipped with a HTS plate loader. For human whole blood samples, lymphocyte population was gated for pSTAT histogram analysis for IFNα, IL-10, IL-12, IL-15, IL-21, IL-23, and IL-27-treated samples; CD14^+ cells for IFNγ-treated samples; CD3^+ cells for IL-6 and TSLP-treated samples; all events (entire populations) for EPO-treated samples. Entire populations of keratinocytes and THP-1 cells were gated for the IL-4, IL-13, IL-22 and IL-31 assays. Background fluorescence was defined using unstimulated cells and a gate was placed at the foot of the peak to include ˜0.5% gated population. Histogram statistical analysis was performed using FACSDiva version 8.0. Relative fluorescence unit, which measures the level of pSTAT, was calculated by multiplying the percent positive population and its mean fluorescence. Inhibition curves and half maximal inhibitory concentration (IC50) values were determined using Prism™ software (Version 8) or the Activity Base data analysis software (ID Business Solutions).

IL-13 induced pSTAT6 = assay: IL-13-induced pSTAT6 in human keratinocytes; details: Keratinocyte, JAK1/JAK2, read-out: IL-13 induced pSTAT6, cellular potency IC50
Method: (§1) Human whole blood was collected from healthy donors via vein puncture into Vacutainer collection tubes containing sodium heparin in accordance with Pfizer protocols (Protocol No. GOHW RDP-01) approved by the Shulman Institutional Review Board. Blood was warmed to 37° C. priorto use. Human whole blood was aliquoted (90 μL/well) in 96-well, deep-well, V-bottom plates and treated with compounds (5 μL/well) at different concentrations up to 60 μM (0.2% DMSO final) at 37° C. for 60 minutes. This was followed by a challenge with IFNα (5000 U/mL), IFNγ (100 ng/mL), IL-6 (50 ng/mL), IL-10 (30 ng/mL), IL-12 (30 ng/mL), IL-15 (30 ng/mL), IL-21 (50 ng/mL), IL-23 (25 ng/mL), IL-27 (1000 ng/mL), EPO (2 U/mL), TSLP (50 ng/mL) or PBS and incubated for 15 minutes. Anti-cell surface antibodies were added 15 minutes prior to cytokine stimulation; anti-CD3-BV421 (0.5 μL/well) to IL-6-treated and TSLP-treated samples and anti-CD14-BV421 (0.5 μL/well) to IFNγ-treated samples. Samples were treated with warm 1×Lyse/Fix buffer (700 μL/well) to terminate activation and further incubated at 37° C. for 20 minutes to lyse red blood cells. Plates were centrifuged at 300×g for 5 minutes, supernatant was aspirated, and cells were washed with 800 μL/well of staining buffer (D-PBS containing 0.1% FBS and 0.01% sodium azide). Washed cell pellets were resuspended in 350 μL/well of prechilled 90% methanol and incubated at 4° C. for 30 minutes. After the removal of 90% methanol, cells were washed once with staining buffer. […]
(§2) After overnight incubation at 4° C., anti-pSTAT stained samples were transferred into 96-well polypropylene U-bottom plates and flow cytometric analysis was performed on a LSR Fortessa™ equipped with a HTS plate loader. […] Background fluorescence was defined using unstimulated cells and a gate was placed at the foot of the peak to include ˜0.5% gated population. […]

IL-23 induced pSTAT3 = assay: IL-23-induced pSTAT3 in human whole blood (lymphocytes); details: Lymphocyte, JAK2/TYK2, read-out: IL-23 induced pSTAT3, cellular potency IC50
Method: as §1, with “buffer. All samples were finally suspended in 150 μL/well of the desired anti-phospho-STAT antibodies at 1:150 dilution in staining buffer; anti-pSTAT1-AF647 in IFNγ treated samples; anti-pSTAT1-AF488 and anti-pSTAT3-AF647 in IL-6-treated samples, anti-pSTAT3-AF647 in IFNα, IL-10, IL-21, IL-23 and IL-27 treated samples, anti-pSTAT4-AF647 in IL-12 treated samples, anti-pSTAT5-AF-647 in EPO, IL-15 and TSLP-treated samples. Human primary keratinocytes were cultured in DermaLife™ medium with supplement kit to expand cell population. Cell passages 2 to 5 were used in the assays. Cells were harvested at ˜80% confluence, suspended in warm DermaLife™ medium, aliquoted (90 μL/well) in 96-well, deep-well, V-bottom plates, and incubated at 37° C. for 30 minutes. Cells were then treated with compounds (0.0003 to 20 μM) for 60 minutes and followed by stimulation with IL-4 (2 ng/mL) or IL-13 (20 ng/mL) at 37° C. for 15 minutes.” for “buffer.”
as §2

IL-4 induced pSTAT6 = assay: IL-4-induced pSTAT6 in human keratinocytes; details: Keratinocyte, JAK1/JAK2, read-out: IL-4 induced pSTAT6, cellular potency IC50
Method: as §1, §2

IL-22 induced pSTAT3 = assay: IL-22-induced pSTAT3 in human keratinocytes; details: Keratinocyte, JAK1/TYK2, read-out: IL-22 induced pSTAT3, cellular potency IC50

## C[C@H](O)CS(=O)(=O)N[C@H]1C[C@@H](N(C)c2ncnc3[nH]ccc23)C1 (single isomer, unassigned) [IA (M2)]
IL-31 induced pSTAT3
  IC50: 56 nM
IL-13 induced pSTAT6
  IC50: 84.1 nM
IL-23 induced pSTAT3
  IC50: 6210 nM
IL-4 induced pSTAT6
  IC50: 134 nM
IL-22 induced pSTAT3
  IC50: 198 nM

## C[C@@H](O)CS(=O)(=O)N[C@H]1C[C@@H](N(C)c2ncnc3[nH]ccc23)C1 (single isomer, unassigned) [IC (M3)]
IL-23 induced pSTAT3
  IC50: 13800 nM

## CN(c1ncnc2[nH]ccc12)[C@H]1C[C@@H](NS(=O)(=O)CCCO)C1 [IB (M1), 3-Hydroxy-N-(cis-3-(methyl(7H-pyrrolo[2,3-d]pyrimidin-4-yl)amino)cyclobutyl)propane-1-sulfonamide]
IL-31 induced pSTAT3
  IC50: 79.6 nM
IL-13 induced pSTAT6
  IC50: 236 nM
IL-23 induced pSTAT3
  IC50: 26200 nM
IL-4 induced pSTAT6
  IC50: 433 nM
IL-22 induced pSTAT3
  IC50: 703 nM
